The record followed here is PubChem BioAssay AID588780 (Sanford-Burnham Center for Chemical Genomics, 2011).

Each structure is given as a SMILES string. Active and inactive are the calls of the source.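 How the source made its calls: active means compounds whose fitted half-maximal concentration in the cell-protection dose series is at or below a set limit; inactive means the rest.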 Bounds are passed on as bounds.

This assay deals with H9c2 cardiomyocytes, 2-deoxyglucose stress, ATP luminescence, 2 h. Briefly: protection of cardiomyocytes from 2-deoxyglucose injury, dose response, cell-based, 2-deoxyglucose stress, uHTS hits (AID 588780).
Consider `O=C(Nc1ccccc1)c1nc[nH]c1C(=O)NCCCCCCNC(=O)c1[nH]cnc1C(=O)Nc1ccccc1`, for which the IC50 is 10.5 µM. Turning to `Cc1sc2nc(CSCC(=O)N(C)CC(=O)Nc3ccc(F)cc3)[nH]c(=O)c2c1C`, the IC50 was > 79 µM (inactive). Take `CC(OC(=O)CCc1nc2ccccc2c(=O)[nH]1)C(=O)NCc1ccc2c(c1)OCO2` (stereo not drawn): the IC50 was > 79 µM (inactive). The figure for `Cc1nc(NC(=O)c2cc3c(C)nn(-c4ccccc4)c3s2)sc1C(=O)Nc1ccccc1` is > 79 µM (inactive); for `Nc1cc2[nH]c(=O)c3ccccc3c2cc1Br` it is > 79 µM (inactive).

Take `COc1cc(-c2cnc3c(NC=O)cc(-c4ccsc4)cn23)cc(OC)c1OC`: the IC50 is > 79 µM (inactive). In the case of `COc1cccc(OC)c1C(=O)Nc1ccc(Br)c(C(=O)c2ccccc2)c1`, the IC50 was 10.7 µM.

Take `O=C(COC(=O)c1ccc([N+](=O)[O-])o1)Nc1ccc(N2CCOCC2)cc1`: the IC50 was > 79 µM (inactive).

Consider `O=C(CN1C(=O)C2C3C=CC(C3)C2C1=O)Nc1nc(-c2ccccn2)cs1` (stereo not drawn), for which the IC50 was 29 µM.

Take `Cc1ccc(-c2[nH]c3cc(C(N)=O)ccc3c(=O)c2O)cc1`: the IC50 was > 79 µM (inactive). The figure for `Cc1nc(N2CCN(c3ccccn3)CC2)c2c(C)c(C(=O)Nc3ccccc3F)sc2n1` is 10.5 µM; for `COc1ccc(N(C(=O)c2cccc([N+](=O)[O-])c2)S(=O)(=O)c2cccs2)cc1` it is 13.4 µM; for `CN1CCC(N(C)C(=O)CCc2nc3ccccc3c(=O)[nH]2)CC1` it is > 79 µM (inactive). In the case of `Cn1nc(-c2ccccc2F)c2cc(C(=O)Nc3ccc4c(c3)OCCO4)sc21`, the IC50 was > 79 µM (inactive).

`CCOC(=O)C1CCN(c2cc3c(cc2NC(=O)c2ccc(OC)c(OC)c2)n(C)c(=O)n3C)CC1`: the IC50 was > 79 µM (inactive).

`COc1cccc(Cn2nc(C(=O)O)c3ccccc3c2=O)c1`: the IC50 was 32.3 µM (inactive). Regarding `COc1cc(NC(=O)c2cc([N+](=O)[O-])ccc2NC(=O)CN2CCN(c3ccccn3)CC2)cc(OC)c1`, the IC50 was > 79 µM (inactive). The figure for `CCCC(=O)Nc1nc2ccc(NC(=O)c3ccc(Br)o3)cc2s1` is > 79 µM (inactive); for `CCn1c(SCC(=O)Nc2ccccc2N2CCCCC2)nc2c1c(=O)n(C)c(=O)n2C` it is 12.6 µM; for `CCCCOc1ccc(C(=O)N/C(=C\c2ccc(OC)cc2)C(=O)OCc2ccco2)cc1` it is > 79 µM (inactive). With `CCN1CCN(c2nc3c(c(=O)[nH]2)CCCC3)CC1`, the IC50 is > 79 µM (inactive). Consider `CC(Oc1ccc(F)cc1)C(=O)Nc1nc(-c2ccccn2)cs1` (stereo not drawn), for which the IC50 is 37.5 µM (inactive).

For `COC(=O)c1ccc2c(=O)[nH]c(COC(=O)c3[nH]c(C)c(C(C)=O)c3C)nc2c1`, the IC50 is > 79 µM (inactive). Consider `Cc1nc(SCC(=O)N2CCN(c3ccccc3)CC2)c2oc3ccccc3c2n1`, for which the IC50 was 13.8 µM.

Take `O=C(CCc1nc2ccccc2c(=O)[nH]1)N1CCN(S(=O)(=O)c2cccc([N+](=O)[O-])c2)CC1`: the IC50 was > 79 µM (inactive). The value for `Cc1cccc(C(C)C)c1NC(=O)C(C)OC(=O)Cc1n[nH]c(=O)c2ccccc12` (stereo not drawn) was > 79 µM (inactive); that for `Cc1cc(C)n(-c2ccc3cccc(NS(C)(=O)=O)c3n2)n1` was > 79 µM (inactive). The figure for `COc1ccccc1NS(=O)(=O)c1cccc(C(=O)N/N=C/c2c(CO)cnc(C)c2O)c1` is 31.8 µM (inactive). The figure for `CCN(Cc1ccccc1)C(=O)c1cc2c(=O)oc3ccc(C)cc3c2s1` is > 79 µM (inactive).

Take `COc1ccc(NCc2n[nH]c(=O)c3ccccc23)cc1`: the IC50 is > 79 µM (inactive).

On to `CC(=O)Nc1ccc(C(=O)Nc2nc(-c3ccccn3)cs2)cc1`, for which the IC50 was 32.1 µM (inactive). Turning to `CCCN(CC(=O)Nc1ccccc1C)C(=O)Cc1n[nH]c(=O)c2ccccc12`, the IC50 was > 79 µM (inactive).

For the compound `Cn1c(=O)[nH]c(=O)c2c1nc(N(CCO)Cc1ccccc1)n2CCCc1ccccc1`, the IC50 was > 79 µM (inactive).
